Experimental data taken from US8178506B2, “Oligomeric compounds and compositions for use in modulation of small non-coding RNAs” (Regulus Therapeutics Inc., priority 2003, dated 2012).
In the oligonucleotide strings, read from the 5' end, every base follows the letter of its sugar. An asterisk marks phosphorothioate; unmarked linkages are phosphodiester. Other units and linkages are bracketed, terminal groups are in braces. A string of capitals states the bases alone. e = 2'-O-(2-methoxyethyl) (MOE); [5mC] = 5-methylcytosine; d = 2'-deoxy (DNA)

Test system: T47D cells
Experiment: Caspase-3 activity assay (apoptosis) in T47D cells
Details: for Fold Increase over UTC (caspase-3 activity, apoptosis): T47D cells, 200 nM oligomeric compound, 48 hours; for apoptosis in T47D cells: caspase assay, 200 nM, conclusion from Tables 9-12

With “328657 (eA*eA*eA*eA*eA*dT*dA*dA*dT*d[5mC]*dT*d[5mC]*dT*dG*d[5mC]*eA*e[5mC]*eA*eG*eG; antisense) [compound 328657]” the “Fold Increase over UTC (caspase-3 activity, apoptosis)” value (shortened to “Fold Increase over UTC”) (experiment of Table 10) was 0.8 fold.

In the case of “328393 (eG*e[5mC]*eT*eG*eG*d[5mC]*d[5mC]*dT*dG*dA*dT*dA*dG*d[5mC]*d[5mC]*e[5mC]*eT*eT*e[5mC]*eT; antisense) [compound 328393]”, the “Fold Increase over UTC” value (experiment of Table 11) is reported as 1.5 fold.

In the case of “328376 (eT*e[5mC]*eA*e[5mC]*eA*dA*dT*d[5mC]*d[5mC]*d[5mC]*d[5mC]*dA*d[5mC]*d[5mC]*dA*eA*eA*e[5mC]*eT*e[5mC]; antisense) [compound 328376]”, the “Fold Increase over UTC” value (experiment of Table 11) is reported as 0.7 fold.

In the case of “SEQ ID NO 543: gapmer of Tables 9-12 having this SEQ ID NO (e[5mC]*eG*e[5mC]*eA*eT*d[5mC]*dT*dT*dG*dA*d[5mC]*dT*dG*dT*dA*eG*e[5mC]*eA*eT*eG)”, the “apoptosis in T47D cells” value is reported as “prevent or have a protective effect from apoptosis”.

With “328425 (antisense eG*eA*e[5mC]*e[5mC]*eT*dG*d[5mC]*dT*dA*d[5mC]*dT*d[5mC]*dA*d[5mC]*dT*e[5mC]*eT*e[5mC]*eG*eT) [compound 328425]” the “Fold Increase over UTC” value (experiment of Table 10) was 0.8 fold.

With “SEQ ID NO 516: gapmer of Tables 9-12 having this SEQ ID NO (antisense eA*eA*eT*eG*eG*dA*dG*d[5mC]*d[5mC]*dA*dA*dG*dG*dT*dG*e[5mC]*eT*eG*e[5mC]*e[5mC])” the “apoptosis in T47D cells” value was “induce apoptosis”.

In the case of “328645 (eT*eG*e[5mC]*eT*e[5mC]*dA*dG*d[5mC]*d[5mC]*dA*dG*d[5mC]*d[5mC]*d[5mC]*d[5mC]*eA*eT*eT*e[5mC]*eT) [compound 328645]”, the “Fold Increase over UTC” value (experiment of Table 11) is reported as 2.2 fold.

“SEQ ID NO 496: gapmer of Tables 9-12 having this SEQ ID NO (antisense eT*eT*eA*eT*e[5mC]*dG*dG*dA*dA*d[5mC]*dT*dT*d[5mC]*dA*d[5mC]*eA*eG*eA*eG*eA)” was tested, and the “apoptosis in T47D cells” value was “induce apoptosis”.

For “328690 (eG*e[5mC]*e[5mC]*eT*e[5mC]*d[5mC]*dT*dT*d[5mC]*dA*dT*dA*dT*dA*dT*eT*e[5mC]*eT*e[5mC]*eA; antisense) [compound 328690]”, the “Fold Increase over UTC” value (experiment of Table 12) was 0.8 fold.

In the case of “GACTACTGTTGAGAGGAACA (antisense; same sequence listed as MOE 5-10-5 gapmer and as uniform MOE, further chemistry not given here) [ISIS 328639]”, the “apoptosis in T47D cells” value is reported as “prevent or have a protective effect from apoptosis”.

For “328418 (antisense eA*eG*eT*eG*eT*d[5mC]*dT*d[5mC]*dA*dT*d[5mC]*dG*d[5mC]*dA*dA*eA*e[5mC]*eT*eT*eA) [compound 328418]”, the “Fold Increase over UTC” value (experiment of Table 12) was 1.0 fold.

For “328695 (eG*eG*eA*eT*eT*dT*dA*dA*dA*d[5mC]*dG*dG*dT*dA*dA*eA*e[5mC]*eA*eT*e[5mC]; antisense) [compound 328695]”, the “Fold Increase over UTC” value (experiment of Table 11) was 0.8 fold.

With “328696 (e[5mC]*eT*e[5mC]*eT*eA*dG*d[5mC]*dT*d[5mC]*d[5mC]*d[5mC]*dT*d[5mC]*dA*d[5mC]*e[5mC]*eA*eG*eT*eG; antisense) [compound 328696]” the “Fold Increase over UTC” value (experiment of Table 10) was 1.5 fold.

For “328642 (eA*e[5mC]*eT*e[5mC]*e[5mC]*d[5mC]*dA*dG*dG*dG*dT*dG*dT*dA*dA*e[5mC]*eT*e[5mC]*eT*eA; antisense) [compound 328642]”, the “Fold Increase over UTC” value (experiment of Table 12) was 1.0 fold.

With “ISIS 328381: 5-10-5 2′-MOE gapmer PS; targets mir-214 pri-miRNA (eA*e[5mC]*eA*eG*eG*dT*dG*dA*dG*d[5mC]*dG*dG*dA*dT*dG*eT*eT*e[5mC]*eT*eG)” the “apoptosis in T47D cells” value was “induce apoptosis”.

“328398 (antisense eG*e[5mC]*e[5mC]*eA*eT*dT*dG*dG*dG*dA*d[5mC]*d[5mC]*dT*dG*d[5mC]*eA*e[5mC]*eA*eG*e[5mC]) [compound 328398]” was tested, and the “Fold Increase over UTC” value (experiment of Table 10) was 0.9 fold.

In the case of “328389 (eG*eG*e[5mC]*eA*e[5mC]*dT*dT*d[5mC]*dA*dT*dT*dG*d[5mC]*dT*dG*e[5mC]*eT*eG*e[5mC]*e[5mC]; antisense) [compound 328389]”, the “Fold Increase over UTC” value (experiment of Table 12) is reported as 1.1 fold.

With “328700 (eA*eG*e[5mC]*e[5mC]*eA*dG*dT*dG*dT*dG*dT*dA*dA*dA*dA*eT*eG*eA*eG*eA; antisense) [compound 328700]” the “Fold Increase over UTC” value (experiment of Table 10) was 0.8 fold.

In the case of “GGATTTAAACGGTAAACATC (antisense; same sequence listed as MOE 5-10-5 gapmer and as uniform MOE, further chemistry not given here) [ISIS 328695]”, the “apoptosis in T47D cells” value is reported as “prevent or have a protective effect from apoptosis”.

For “328653 (eG*eT*eG*eT*eT*d[5mC]*dA*dG*dA*dA*dA*d[5mC]*d[5mC]*d[5mC]*dA*eG*eG*e[5mC]*e[5mC]*e[5mC]; antisense) [compound 328653]”, the “Fold Increase over UTC” value (experiment of Table 11) was 1.1 fold.

For “328385 (eA*eG*eT*eG*e[5mC]*dT*dA*dA*dT*dA*d[5mC]*dT*dT*d[5mC]*dT*eT*eT*e[5mC]*eA*eT; antisense) [compound 328385]”, the “Fold Increase over UTC” value (experiment of Table 10) was 0.9 fold.

In the case of “CTCTAGCTCCCTCACCAGTG (antisense; same sequence listed as MOE 5-10-5 gapmer and as uniform MOE, further chemistry not given here) [ISIS 328696]”, the “apoptosis in T47D cells” value is reported as “induce apoptosis”.

With “328399 (antisense eA*eT*eG*eG*eG*dT*dA*d[5mC]*d[5mC]*dA*d[5mC]*d[5mC]*dA*dG*dA*eA*e[5mC]*eA*eT*eG) [compound 328399]” the “Fold Increase over UTC” value (experiment of Table 10) was 1.0 fold.

For “328693 (eT*eT*eT*eG*eA*dT*dT*dT*dT*dA*dA*dT*dT*d[5mC]*d[5mC]*eA*eA*eA*e[5mC]*eT; antisense) [compound 328693]”, the “Fold Increase over UTC” value (experiment of Table 12) was 1.0 fold.

“TACAACGGCATTGTCCTGAA (antisense; same sequence listed as MOE 5-10-5 gapmer and as uniform MOE, further chemistry not given here) [ISIS 328655]” was tested, and the “apoptosis in T47D cells” value was “prevent or have a protective effect from apoptosis”.

With “GTGTTCAGAAACCCAGGCCC (antisense; same sequence listed as MOE 5-10-5 gapmer and as uniform MOE, further chemistry not given here) [ISIS 328653]” the “apoptosis in T47D cells” value was “induce apoptosis”.

“SEQ ID NO 518: gapmer of Tables 9-12 having this SEQ ID NO (antisense eG*e[5mC]*eT*eA*eG*dT*dG*dA*d[5mC]*dA*dG*dG*dT*dG*d[5mC]*eA*eG*eA*e[5mC]*eA)” was tested, and the “apoptosis in T47D cells” value was “prevent or have a protective effect from apoptosis”.

For “SEQ ID NO 511: gapmer of Tables 9-12 having this SEQ ID NO (antisense eT*eT*eG*eA*eA*d[5mC]*dT*d[5mC]*d[5mC]*dA*dT*dG*d[5mC]*d[5mC]*dA*e[5mC]*eA*eA*eG*eG)”, the “apoptosis in T47D cells” value was “induce apoptosis”.

In the case of “GGCCTAATATCCCTACCCCA (antisense; same sequence listed as MOE 5-10-5 gapmer and as uniform MOE, further chemistry not given here) [ISIS 328652]”, the “apoptosis in T47D cells” value is reported as “induce apoptosis”.
